Assay results reported in PubChem BioAssay AID179 (DTP/NCI, 2004).
Where “and” joins values, the source holds several entries; their conditions need not be identical. Equal entries are not always repeated. Calls of active or inactive are those of the source.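 Rule for the calls: active = compounds giving half or more protection of infected cells from virus-caused growth loss, again on retest; inactive = the rest.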

Test system: CEM cells HIV-1 protection, formazan growth assay
Assay: NCI AIDS Antiviral Assay
Settings: for IC50: measured here: growth of uninfected CEM cells
Procedure, shortened: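 Protection of CEM cells against HIV-1 measured as cell growth via soluble formazan read-out, with five concentrations tested on both infected and uninfected cells; failure to protect may reflect toxicity.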

SMILES | EC50 | IC50 | outcome
COc1ccc(N2C=Nn3c(nc4sc5c(c4c3=O)CCCC5)C2)cc1 | > 50.1 µM | > 50.1 µM | 
CC(=O)c1cccc(C(C)=O)c1N=Cc1ccccc1 |  |  | inactive
O=C(O)C1=C(Cl)c2ccccc2S1(=O)=O |  |  | inactive
Cc1c(O)nc(CO)[nH]c1=O | > 200 µM | > 200 µM | 
Cn1c(C2CCCc3c2c2ccccc2n3C)cc2ccccc21 (stereo not drawn) | > 16.6 µM | > 16.6 µM | 
c1ccc(/C2=N\OCCCOc3ccccc32)cc1 | > 200 µM | > 200 µM | 
COc1ccc(/C=C2\SC(=S)N(/C=C(/C#N)C(=O)c3ccc4ccccc4c3)C2=O)cc1OC | > 200 µM | 11.7 µM | 
O=[N+]([O-])c1ccc(Oc2ccc(S(=O)(=O)c3ccc(Oc4ccc([N+](=O)[O-])cc4)c([N+](=O)[O-])c3)cc2[N+](=O)[O-])cc1 | > 200 µM | > 200 µM | 
CC(C)=CCC[C@@H](C)C1=C(Nc2ccccc2F)C(O)=C(C)C(=O)C1=O | > 200 µM | 2.14 µM | 
COc1ccc(/C=C2\CCCc3ccccc3C2=O)cc1 | > 200 µM | 0.145 µM | 
CCN(CC)c1ccc(Cl)c2c1C(O)(C(C)C)C2(C)C (stereo not drawn) | > 200 µM | 58.9 µM | 
Oc1ccc2ccccc2c1C=Nc1ccc(SSc2ccc(N=Cc3c(O)ccc4ccccc34)cc2)cc1 | > 200 µM | 30.2 µM | 
C/C(Cl)=N\OC(=O)Nc1ccc([N+](=O)[O-])cc1 | > 200 µM | 10.5 µM | 
CN(C)C[C@H]1CC[C@@H](CN(C)C)C1=O |  |  | inactive
Cc1cc(C)c(S(=O)(=O)N(CCCCCCN)OCCCN)c(C)c1 | > 200 µM | 30.2 µM | 
CC(=O)[CH-]C(C)=O.CC(=O)[CH-]C(C)=O.COc1cc2cc(C(=O)N3CC(CCl)c4ccc(NCCN)cc43)[nH]c2c(OC)c1OC.[Cr+5].[O-][Cl+3]([O-])([O-])[O-] (stereo not drawn) | > 1 µM | 0.479 µM | 
Nc1nc(Cl)cc(OCC2(CO)CCC2)n1 | > 200 µM | 135 µM | 
COc1ccc2[nH]cc(CN3CCC(CO)(c4ccccc4)CC3)c2c1 | > 200 µM | 91.2 µM | 
C=C(C)[C@H]1C2=CC(C(=O)OC)=C(C[C@H](C(=C)C)[C@@H](O)[C@@H](O)C3=C[C@H]1OC3=O)O2 | > 200 µM | 93.3 µM | 
Cc1c(C)c(C)c2c(c1C)CC2=O | > 77.6 µM | > 77.6 µM | 
CC(C)(O)c1cc2c(cc1C(C)(C)O)-c1ccccc1-2 | > 200 µM | > 200 µM | 
CN(C)/C=C(\C(=O)c1ccccc1)n1nc(-c2ccccc2)cc1-c1ccccc1 | > 200 µM | 87.1 µM | 

SMILES | EC50 | IC50 | outcome
[N-]=[N+]=Nc1cc(=O)n(-c2ccccc2)c(=O)n1-c1ccccc1 | > 200 µM | > 200 µM | 
O=C(OCc1ccccc1)N1c2cc([N+](=O)[O-])ccc2C(=O)N2CCC[C@H]2C1O (stereo partly drawn) | > 200 µM | 138 µM | 
O=c1ccnc2ccc3n[nH][nH]c3c12 |  |  | inactive
Cc1ccc(S(=O)(=O)Nn2c(C)cc3ccc(S(=O)(=O)Nc4ccccc4[N+](=O)[O-])cc3c2=O)cc1 | > 200 µM | 10.2 µM | 
CC(C)n1c(=O)[nH]n(-c2ccccc2)c1=O | > 200 µM | > 200 µM | 
C[C@@]12C[C@@H](c3ccccc3O1)N1CCSC1=N2 |  |  | inactive
O=C(Nc1ccccc1)OCc1nc2c([nH]1)C(=O)C=CC2=O |  |  | inactive
Nc1nc2c(ncn2C(CCO)SCCO)c(=O)[nH]1 (stereo not drawn) | > 871 µM | > 871 µM | 
Clc1cc(OCC23CC4CC(CC(C4)C2)C3)nc(OCC23CC4CC(CC(C4)C2)C3)n1 | > 100 µM | > 100 µM | 
O=c1c(Cl)c(N2CCCCC2)cnn1-c1ccccc1 | > 174 µM | > 174 µM | 
O=C1COc2cccnc2N1CCCCO | > 200 µM | > 200 µM | 
COc1ccccc1C1C=NNC1 (stereo not drawn) | > 200 µM | 107 µM | 
CC(=O)O[C@H]1CC[C@]2(C)C3CC[C@]4(C)C([C@H](C)CCCC(C)C)CCC4[C@]3(C#N)n3c(=O)n(-c4ccccc4)c(=O)n3[C@]2(C#N)C1 (stereo partly drawn) | > 200 µM | > 200 µM | 
CC(C)Oc1c(-c2c(OC(C)C)c(=O)c2=O)c(=O)c1=O | > 200 µM | > 200 µM | 
O=C(c1ccccc1)c1ccc2c(c1)N=C(c1ccc(Cl)c(Cl)c1)CC(c1ccc3ccccc3c1)N2 (stereo not drawn) | > 13.8 µM | > 13.8 µM | 
[N-]=[N+]=Nc1c(C=O)c(=O)n2c3c(cccc13)CCC2 | > 200 µM | 4.27 µM | 
Cc1cccc(C)c1N1C(=O)C(=O)C(c2nc3ccccc3s2)C(=Nc2cccc3c(=O)[nH][nH]c(=O)c23)C1=O (stereo not drawn) |  |  | inactive
Cc1cc2c(cc1C)NC(=O)CC(c1ccccc1)=N2 | > 200 µM | > 200 µM | 
CC12CCC(C3NC(=S)NN=C31)C2(C)C (stereo not drawn) | > 302 µM | > 302 µM | 
CCC[CH2][Sn]([CH2]CCC)([O]C(=O)c1nccnc1N)[O]C(=O)c1nccnc1N | > 51.3 µM | 0.288 µM | 
C1CCN(c2nsc(N3CCCCC3)n2)CC1 |  |  | inactive
Cc1ncc([N+](=O)[O-])n1CC(O)Cn1cnc([N+](=O)[O-])n1 (stereo not drawn) | > 200 µM | > 200 µM | 

SMILES | EC50 | IC50 | outcome
CCCCCCCCCCCCC1=C(OC)C(=O)c2cccnc2C1=O |  |  | inactive
CCCCCCN1CCc2c(C)c(C#N)c3nc4ccccc4n3c21 | > 100 µM | 17.8 µM | 
C=C(C)[C@@H]1CC[C@@H](C)C[C@H]1OC(C)=O | > 200 µM | > 200 µM | 
COC(=O)CN(CC1O[C@@H]2OC(C)(C)O[C@@H]2C1N=[N+]=[N-])C(=O)OCc1ccccc1 (stereo partly drawn) | > 200 µM | 20.9 µM | 
c1cnn([B-]2(n3cccn3)n3ccc[n+]3[B-](n3cccn3)(n3cccn3)n3ccc[n+]32)c1 | > 200 µM | > 200 µM | 
NCC1(N2CCOCC2)C2CCCC21CNc1ccccc1 (stereo not drawn) | > 24 µM | > 24 µM | 
COc1ccc(C(=O)Nc2cc(Cc3cc(NC(=O)c4ccc(OC)c(C(=O)O)c4)c(OC)c(C(=O)O)c3)cc(C(=O)O)c2OC)cc1C(=O)O | > 50.1 µM | > 50.1 µM | 
Cc1ccccc1C(C#N)/C(=N/NC(N)=S)C(=O)Nc1c(C)cccc1C (stereo not drawn) | > 245 µM | 224 µM | 
COc1cccc(/C=N\NC(=O)C(C)SC(C)C(=O)N/N=C/c2cccc(OC)c2)c1 (stereo not drawn) |  |  | inactive
Cc1cc(C)c(NS(=O)c2cccc([N+](=O)[O-])c2)c(C)c1 (stereo not drawn) | > 30.9 µM | > 30.9 µM | 
CCOC(=O)C(C)c1nc2c(Cl)c3ncccc3cc2[nH]c1=O (stereo not drawn) | > 200 µM | > 200 µM | 
CCc1ccc2nccc(NCCCN(C)C)c2c1[N+](=O)[O-] | > 200 µM | 87.1 µM | 
CCOC(=O)C(Cc1cn(S(=O)(=O)c2ccc(C)cc2)cn1)P(=O)(OCC)OCC (stereo not drawn) | > 200 µM | > 200 µM | 
CC(=O)OCCOCn1c2c(c(=S)[nH]c1=O)CCC2 | > 200 µM | > 200 µM | 
O=C(NNC(=O)c1ccccc1O)c1cccc(Br)c1 | > 200 µM | 6.46 µM | 
CCOC(=O)c1c(-c2ccc(OC)cc2)c(C#N)c(=S)n(C2OC(CO)C(O)C(O)C2O)c1C (stereo not drawn) | > 200 µM | > 200 µM | 
CN1/C(=C\N=O)C(C)(C)N(O)C1(C)C | > 200 µM | > 200 µM | 
COC(=O)c1c(C)c2c(c(C)c1C(=O)OC)-c1c(C)ccc3ccc(C)c-2c13 | > 100 µM | 3.72 µM | 
COCn1c(=O)n(C)c(=O)c2c1nc1c(c(=O)n(C)c(=O)n1COC)[n+]2[O-] | > 200 µM | 5.25 µM | 
Nc1ccn(C2CC(O)C(COP(=O)(O)OC3C(COP(=O)(O)O)OCC3n3cnc4c(N)ncnc43)O2)c(=O)n1 (stereo not drawn) | > 200 µM | > 200 µM | 
CC(=O)N1c2ccccc2Sc2c1ccc1ccccc21 | > 200 µM | 45.7 µM | 
CCOC(=O)c1c(N)sc2c1C(C(=O)OCC)CC2 (stereo not drawn) | > 200 µM | 174 µM | 

SMILES | EC50 | IC50 | outcome
COCOC1CCCC[C@@]1(OCCOCCO[C@@]1(c2ccccc2)CCCC[C@H]1OCOC)c1ccccc1 (stereo partly drawn) | > 5.01 µM | > 5.01 µM | 
O=c1ccn([C@@H]2O[C@@H]3COC(c4c(F)cccc4Cl)N(O)[C@@H]3C2O)c(=O)[nH]1 (stereo partly drawn) | > 200 µM | > 200 µM | 
COc1cc2ccccc2cc/c1=N\O | > 200 µM | 41.7 µM | 
COC(=O)C(Cc1c[nH]c2ccccc12)NP(=O)(O)OCC1OC(n2cc(I)c(=O)[nH]c2=O)CC1O (stereo not drawn) | > 200 µM | > 200 µM | 
N#CC(C#N)=C1/C(=C/C=C/C=C/C=C/c2ccc(N3CCCCC3)s2)S(=O)(=O)c2ccccc21 | > 200 µM | 93.3 µM | 
Cc1ccc(S(=O)(=O)OC2C(O)C(CO)OC2n2c(Br)c(C(N)=O)c3c(N)ncnc32)cc1 (stereo not drawn) | > 200 µM | > 200 µM | 
CCC(=O)C1=C(OC(C)=O)C2Cc3c(n(C)c4ccccc34)C(C1)N2C (stereo not drawn) |  |  | inactive
c1cc(C[S+]2CCCC2)oc1C[S+]1CCCC1 | > 200 µM | 102 µM | 
S=C(Nc1ccc2cn[nH]c2c1)Nc1ccc2cn[nH]c2c1 | > 309 µM | 129 µM | 
Cc1cc(C)c2c(c1)CC1(Cc3c(ccc(C)c3C)C1=O)C2=O (stereo not drawn) | > 100 µM | > 100 µM | 
O=C1OC(=O)C2C1C(c1ccccc1[N+](=O)[O-])C=C(c1ccco1)N2c1ccncc1 (stereo not drawn) | > 20 µM | 2.51 µM | 
O=C(CCc1nc(=S)[nH][nH]1)Nc1cc(Cl)c(Cl)cc1Cl | > 195 µM | > 195 µM | 
N#CCCC(CC#N)N1CCN(C(CC#N)CCC#N)CC1 (stereo not drawn) | > 200 µM | > 200 µM | 
CC(C)CCCC(C)[C@H]1CC[C@H]2[C@@H]3CC[C@H]4C[C@@H](CCC=C(c5cc(Cl)c(OCc6ccc(CC(=O)O)cc6)c(C(=O)O)c5)c5cc(Cl)c(OCc6ccc(CC(=O)O)cc6)c(C(=O)O)c5)CC[C@]4(C)[C@H]3CC[C@]12C (stereo partly drawn) | 1.7 µM and 1.41 µM | 115 µM and 20 µM | 
COc1ccc2c(c1)CCC1OC(c3cccnc3)OC21 (stereo not drawn) | > 200 µM | 30.2 µM | 
C=CCC12CCC(=O)[C@@]1(C)CC=C(O)C2=O (stereo partly drawn) |  |  | inactive
Nc1nc2c(N)cc(C(F)(F)F)cc2nc1-c1ccccc1 | > 17 µM | > 17 µM | 
CCOC(=O)C1C/C2=C(/CCCCCCCCCC2)SCCCS1 (stereo not drawn) | > 200 µM | 26.9 µM | 
COc1cc(O)c2c(c1)cc(O)c1c(=O)cc(C)oc12 | > 195 µM | 10.5 µM | 
